According to US20060134100A1, “Dc-sign blockers and their use for preventing or treating viral infections” (priority 2002, published 2006):

Tested on: DEN-1 virus strain FGA/NA d1d
Assay type: cell-based
Conditions: THP/DC-SIGN cells, m.o.i. 5 AP61FFU/cell
Experimental: Prior to infection, THP-1/DC/SIGN cells were incubated with either Mab 9D12 (dilution 1:50), Mab BD12.5 (20 μg/ml), Mab 1B10.2.6 (20 μg/ml), EDTA (5 mM), mannan (20 μg/ml), or mock-treated (control). Treated cells were infected with DEN-1 virus strain FGA/NA dld (5 AP61FFU/cell) in the presence of reagents for 2 hrs. Viral antigens were detected by indirect immunofluorescence as described in the legend of FIG. 1. The percentages of infected cells 48 h post-infection are indicated. Values represent the mean of triplicate assays±SD.
Cells were washed once with RPMI 1640, incubated with highly purified virus in RPMI 1640 supplemented with 0.2% bovine serum albumine (BSA, pH 7.5) (Sigma) for 2 hrs at 37° C. and placed into fresh media supplemented with 2% FCS, 2 mM L-glutamine and antibiotics Peni/Strepto at 37° C. for 40 hrs.
Adherent cells were incubated either with EDTA (5 mM), mannan (20 μg/ml), anti-DC-SIGN Mab 1B10.2.6 (20 μg/mi), anti-LMCV Mab 12.5 (isotype control, 20 μg/ml), or DEN E-specific Mab 9D12 (dilution 1:50) in RPMI 1640 supplemented with 0.2% BSA for 20 min at room temperature before binding the virus for 2 hrs. Two hours after infection, cells were washed with RPMI 1640 and incubated with RMPI 1640 2% FCS for 40 hrs. […]

Molecule	reduction of FGA/NA d1d infectivity (mannan 20 μg/ml) [%]	infectivity of DEN-1 virus after preincubation of cells (EDTA 5 mM)
mannan	75	
O=C(O)CN(CCN(CC(=O)O)CC(=O)O)CC(=O)O [EDTA]		essentially abolished
